Where two headings read alike, the source gives them in different places.
Legend:
[1] = system: MDA-MB-231 human breast adenocarcinoma cell line; test: Cell viability assay (resazurin); assay type: cell-based; conditions: MDA-MB-231, resazurin, 96 hrs
Description: (§1) The effects of test compounds were also studied in the 22Rv1 human prostate carcinoma and MDA-MB-231 human breast adenocarcinoma cell lines. The cells were harvested during the logarithmic growth period and counted. Cells were seeded at a count of 3000 cells (22Rv1) or 5000 cells (MDA-MB-231) per well/100 μl in a 96-well plate. After seeding, cells were incubated at 37° C., 5% CO2 for 24 hr. Cells were treated with test compounds at 8 concentrations within a desired concentration range (e.g. 5 nM-10 μM) for generation of dose response curves by preparing serial dilutions of the test compound in DMSO which were further diluted with culture medium and then added to each well. The plate was further incubated for another 72 hrs (22Rv1) or 96 hrs (MDA-MB-231) in humidified incubator at 37° C. and 5% CO2. The assay was terminated by addition of resazurin (# R7017, Sigma). The plate was incubated for 4 hr at 37° C., 5% CO2 and fluorescence was measured using excitation and emission wavelengths of 535 and 590 nm, respectively. Cell viability data were plotted using GraphPad Prism (GraphPad Software, Inc., San Diego, Calif.). In addition, a nonlinear regression model with a sigmoidal dose response and variable slope within GraphPad Prism was used to calculate the IC50 value of individual test compounds.

[2] = system: 22Rv1 human prostate carcinoma cell line; test: Cell viability assay (resazurin); assay type: cell-based; conditions: 22Rv1, resazurin, 72 hrs
Description: as §1

BRD3-2 = BRD3-2 (Homo sapiens (Human), UniProt Q15059); test: Bromodomain and Extraterminal Domain (BET) Binding Assay
Chain of BRD3-2 (Q15059 306-415): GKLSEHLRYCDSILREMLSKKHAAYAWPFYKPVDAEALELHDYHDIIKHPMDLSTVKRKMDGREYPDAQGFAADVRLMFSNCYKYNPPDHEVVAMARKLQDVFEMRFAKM
Outline: (§2)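 AlphaScreen displacement of biotinylated H4 (1-21) K5/8/12/16Ac peptide, in 50 mM HEPES pH 7.5, 100 mM NaCl, 1 mg/ml BSA, 0.05% CHAPS, 0.5% DMSO. Protein-compound preincubation 30 min RT, then ligand 30 min, donor then acceptor beads 60 min dark. Inhibition versus plate controls; IC50 from 10-point titrations.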

BRD4-2 = BRD4-2 (Homo sapiens (Human), UniProt O60885); test: as above
Outline: as §2

BRD4-1 = BRD4-1 (Homo sapiens (Human), UniProt O60885); test: as above
Outline: as §2

BRD2-2 = BRD2-2 (Homo sapiens (Human), UniProt P25440); test: as above
Chain of BRD2-2 (P25440 344-453): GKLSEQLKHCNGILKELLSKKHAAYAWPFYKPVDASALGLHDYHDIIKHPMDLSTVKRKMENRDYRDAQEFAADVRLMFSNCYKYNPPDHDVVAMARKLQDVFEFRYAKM
Outline: as §2

KOPN-8 = test: Cell viability in AML and DLBCL cell lines (Cell Titer-Glo); assay type: cell-based; conditions: Homo sapiens; KOPN-8, Cell Titer-Glo, 72 hr
Description: (§3) A panel of AML and DLBCL cell lines was profiled for effects of compound 3 on cell viability. Cells were seeded at a count of 3000-8000 cells per well/40 μl in a 384-well plate and incubated at 37° C., 5% CO2 overnight. Cells were treated with test compounds at 10 concentrations within a desired concentration range (e.g. 0.5 nM-10 μM) for generation of dose response curves by preparing serial dilutions of the test compound in DMSO which were further diluted with culture medium and then added in a volume of […] to each well. Cells were cultured in the presence of inhibitors at various concentrations for 72 hr. The assay was terminated by addition of […] Cell Titer-Glo reagent (Promega, Madison, Wis.) to each well. Contents were mixed, the plate was incubated for 10 min at room temperature and luminescence was measured. The IC50 value of each test compound was calculated with XLFit curve fitting software.

SU-DHL4 = test: as above; assay type: cell-based; conditions: Homo sapiens, SU-DHL-4, 72 hr
Description: as §3

WSU-DLCL2 = test: as above; assay type: cell-based; conditions: Homo sapiens, WSUDLCL2, 72 hr
Description: as §3

SU-DHL6 = test: as above; assay type: cell-based; conditions: Homo sapiens, SU-DHL-6, 72 hr
Description: as §3

NOMO-1 = test: as above; assay type: cell-based; conditions: Homo sapiens; NOMO-1, Cell Titer-Glo, 72 hr
Description: as §3

KG-1a = test: as above; assay type: cell-based; conditions: Homo sapiens, 72 hr
Description: as §3

RS4; 11 = test: as above; assay type: cell-based; conditions: Homo sapiens, 11, Cell Titer-Glo, 72 hr
Description: as §3

OCI-AML3 = test: as above; assay type: cell-based; conditions: Homo sapiens, OCI-AML-3, 72 hr
Description: as §3

IC50 [1]: 82 nM
IC50 [2]: 58 nM
IC50 (BRD3-2): 29 nM
IC50 (BRD4-2; Table 2, read-out: BET IC50 BRD4-2): 21 nM
IC50 (BRD4-2; Table 3, read-out: BRD4-2 IC50): 21 nM
IC50 (BRD4-1; Table 2, read-out: BET IC50 BRD4-1): 24 nM
IC50 (BRD4-1; Table 3, read-out: BRD4-1 IC50): 24 nM
IC50 (BRD2-2): 12 nM
IC50 (SU-DHL4): 22 nM
IC50 (SU-DHL6): 47 nM
IC50 (RS4; 11): 128 nM
IC50 (OCI-AML3): 50 nM
SMILES: C=CS(=O)(=O)Nc1ccc(Oc2ccc(F)cc2F)c(-c2cc(NC)c(=O)n(C)c2)c1 [Compound 3, N-(4-(2,4-difluorophenoxy)-3-(1-methyl-5-(methylamino)-6-oxo-1,6-dihydropyridin-3-yl)phenyl)ethenesulfonamide]
IC50 (KOPN-8): 9 nM
IC50 (WSU-DLCL2): 84 nM
IC50 (NOMO-1): 205 nM
IC50 (KG-1a): 285 nM
